Experimental data as given in ChEMBL document CHEMBL4725331, “An investigative study of antitumor properties of a novel thiazolo[4,5-d]pyrimidine small molecule revealing superior antitumor activity with CDK1 selectivity and potent pro-apoptotic properties” (Bioorg Med Chem, 2020).

Tests used:
[1] = system: HOP-92; assay: Antiproliferative activity against human HOP-92 cells assessed as inhibition of cell growth measured after 48 hrs by SRB assay; format: functional
[2] = system: IGROV-1; assay: Antiproliferative activity against human IGROV-1 cells assessed as inhibition of cell growth measured after 48 hrs by SRB assay; format: functional
[3] = system: HCT-116; assay: Cytotoxicity against human HCT-116 cells assessed as reduction in cell viability after 48 hrs by MTT assay; format: functional, cell-based; conditions: HCT-116, 48 h
[4] = system: WI-38; assay: Cytotoxicity against human WI-38 cells assessed as reduction in cell viability after 48 hrs by MTT assay; format: cell-based; conditions: WI-38, 48 h

| SMILES | GI50 [1] [µM] | GI50 [2] [µM] | IC50 [3] [µM] | IC50 [4] [µM] |
| --- | --- | --- | --- | --- |
| COc1ccc(-n2c(=S)sc3c(=O)[nH]c(C)nc32)c(OC)c1 | < 0.01 | 0.18 |  |  |
| CC[C@H](CO)Nc1nc(NCc2ccccc2)c2ncn(C(C)C)c2n1 [SELICICLIB] |  |  | 15.5 | 24.1 |
